{"source": "ChEMBL document CHEMBL1148828", "about": "“Deoxycholic acid-derived tetraoxane antimalarials and antiproliferatives(1)” (J Med Chem, 2007)", "key": {"NCI-H322M": {"test_system": "NCI-H322M", "test": "Antiproliferative activity against human NCI-H322M cells after 48 hrs", "format": "functional"}, "MDA-MB-435": {"test_system": "MDA-MB-435", "test": "Antiproliferative activity against human MDA-MB-435 cells after 48 hrs", "format": "functional", "details": "for CC50: read-out: LC50 (the source's name)"}, "Plasmodium falciparum [1]": {"test_system": "Plasmodium falciparum", "test": "Antimalarial activity against Plasmodium falciparum W2", "format": "functional, organism-based"}, "Mus musculus [2]": {"test_system": "Mus musculus", "test": "Survival of Plasmodium berghei KBG 173 infected CD1 mice (Mus musculus) at 20 mg/kg/day", "format": "ADME, organism-based", "details": "in vivo"}, "OVCAR-3": {"test_system": "OVCAR-3", "test": "Antiproliferative activity against human OVCAR-3 cells after 48 hrs", "format": "functional", "details": "OVCAR-3, 48 h"}, "Plasmodium falciparum [3]": {"test_system": "Plasmodium falciparum", "test": "Antimalarial activity against Plasmodium falciparum D6", "format": "functional, organism-based"}, "Liver microsomes": {"test_system": "Liver microsomes", "test": "Metabolic stability in human liver microsomes", "format": "ADME, Microsome", "details": "microsomes"}, "CCRF-CEM": {"test_system": "CCRF-CEM", "test": "Antiproliferative activity against human CCRF-CEM cells after 48 hrs", "format": "functional"}, "LOX IMVI": {"test_system": "LOX IMVI", "test": "Antiproliferative activity against human LOX IMVI cells after 48 hrs", "format": "functional"}, "Mus musculus [4]": {"test_system": "Mus musculus", "test": "Survival of Plasmodium berghei KBG 173 infected CD1 mice (Mus musculus) at 40 mg/kg/day", "format": "ADME, organism-based", "details": "in vivo"}, "Plasmodium falciparum [5]": {"test_system": "Plasmodium falciparum", "test": "Antimalarial activity against Plasmodium falciparum TM91C235", "format": "functional, organism-based"}, "Mus musculus [6]": {"organism": "Mus musculus", "test": "Toxicity in Plasmodium berghei KBG 173 infected CD1 mice (Mus musculus)", "format": "organism-based", "details": "mouse, in vivo"}, "[7]": {"test": "Metabolic stability in mouse liver microsomes", "format": "ADME, Microsome"}, "NCI": {"test_system": "NCI", "test": "Growth inhibition of human NCI DTP 60 cells", "format": "functional"}, "CAKI-1": {"test_system": "CAKI-1", "test": "Antiproliferative activity against human CAKI1 cells after 48 hrs", "format": "functional", "details": "CAKI-1, 48 h"}, "Plasmodium berghei [8]": {"test_system": "Plasmodium berghei", "test": "Antimalarial activity as survivors after 31 days in Plasmodium berghei KBG173 infected CD1 mice (Mus musculus) at 20 mg/kg/day", "format": "functional, organism-based", "details": "KBG 173"}, "ACHN": {"test_system": "ACHN", "test": "Antiproliferative activity against human ACHN cells after 48 hrs", "format": "functional"}, "SN12C": {"test_system": "SN12C", "test": "Antiproliferative activity against human SN12C cells after 48 hrs", "format": "functional"}, "NCI-H23": {"test_system": "NCI-H23", "test": "Antiproliferative activity against human NCI-H23 cells after 48 hrs", "format": "functional", "details": "NCI-H23, 48 h"}, "Mus musculus [9]": {"test_system": "Mus musculus", "test": "Survival of Plasmodium berghei KBG 173 infected CD1 mice (Mus musculus) at 80 mg/kg/day", "format": "ADME, organism-based", "details": "in vivo"}, "Mus musculus [10]": {"test_system": "Mus musculus", "test": "Survival of Plasmodium berghei KBG 173 infected CD1 mice (Mus musculus) at 320 mg/kg/day", "format": "ADME, organism-based", "details": "in vivo"}, "HOP-92": {"test_system": "HOP-92", "test": "Antiproliferative activity against human HOP92 cells after 48 hrs", "format": "functional", "details": "Homo sapiens, HOP-92, 48 h"}, "Plasmodium berghei [11]": {"test_system": "Plasmodium berghei", "test": "Antimalarial activity as survivors after 31 days in Plasmodium berghei KBG173 infected CD1 mice (Mus musculus) at 80 mg/kg/day", "format": "functional, organism-based", "details": "KBG 173"}, "[12]": {"details": "read-out: LC50 (the source's name)"}}, "note": "Active and inactive are the calls of the source. No cut-off for these calls is given here.", "data": [{"smiles": "CC(=O)O[C@H]1C[C@H]2[C@@H]([C@H](OC(C)=O)C[C@@H]3CC4(CC[C@@]32C)OOC2(CCC(C)CC2)OO4)[C@@H]2CC[C@H]([C@H](C)CCC(=O)NCCN(C)C)[C@@]12C", "note": "(stereo in doubt; 22) [listing 1 of 2 here]", "values": [{"measurement": "GI50", "setting": "NCI-H322M", "value": 1.46, "unit": "µM"}, {"measurement": "TGI", "setting": "NCI-H322M", "value": 2.79, "unit": "µM"}, {"measurement": "CC50", "setting": "NCI-H322M; [12]", "value": 5.34, "unit": "µM"}, {"measurement": "GI50", "setting": "MDA-MB-435", "value": 1.53, "unit": "µM"}, {"measurement": "TGI", "setting": "MDA-MB-435", "value": 2.91, "unit": "µM"}, {"measurement": "CC50", "setting": "MDA-MB-435; Homo sapiens, MDA-MB-435, 48 h", "value": 5.52, "unit": "µM"}, {"measurement": "IC50", "setting": "Plasmodium falciparum [1]", "value": 0.0167, "unit": "µM"}, {"measurement": "IC90", "setting": "Plasmodium falciparum [1]", "value": 0.0248, "unit": "µM"}, {"measurement": "Survival", "setting": "Mus musculus [2]", "value": 9, "unit": "days"}, {"measurement": "GI50", "setting": "OVCAR-3", "value": 1.19, "unit": "µM"}, {"measurement": "TGI", "setting": "OVCAR-3", "value": 2.47, "unit": "µM"}, {"measurement": "CC50", "setting": "OVCAR-3; [12]", "value": 5.11, "unit": "µM"}, {"measurement": "IC50", "setting": "Plasmodium falciparum [3]", "value": 0.0186, "unit": "µM"}, {"measurement": "IC90", "setting": "Plasmodium falciparum [3]", "value": 0.0278, "unit": "µM"}, {"measurement": "t1/2", "setting": "Liver microsomes", "value": 0.7, "unit": "h"}, {"measurement": "GI50", "setting": "CCRF-CEM", "value": 0.258, "unit": "µM"}, {"measurement": "TGI", "setting": "CCRF-CEM", "value": 0.725, "unit": "µM"}, {"measurement": "GI50", "setting": "LOX IMVI", "value": 0.183, "unit": "µM"}, {"measurement": "Survival", "setting": "Mus musculus [4]", "value": 19, "unit": "days"}, {"measurement": "IC50", "setting": "Plasmodium falciparum [5]", "value": 0.0122, "unit": "µM"}, {"measurement": "IC90", "setting": "Plasmodium falciparum [5]", "value": 0.0185, "unit": "µM"}, {"measurement": "MCD", "setting": "Mus musculus [6]", "value": 40, "unit": "mg/kg/day"}, {"measurement": "half-life", "setting": "[7]; liver microsomes", "value": 1.28, "unit": "h"}, {"measurement": "GI50", "setting": "NCI", "value": 0.18, "unit": "µM"}, {"measurement": "GI50", "setting": "CAKI-1", "value": 1.37, "unit": "µM"}, {"measurement": "TGI", "setting": "CAKI-1", "value": 2.69, "unit": "µM"}, {"measurement": "CC50", "setting": "CAKI-1; [12]", "value": 5.29, "unit": "µM"}]}, {"smiles": "CC(=O)O[C@H]1C[C@H]2[C@@H]([C@H](OC(C)=O)C[C@@H]3CC4(CC[C@@]32C)OOC2(CCC(C)CC2)OO4)[C@@H]2CC[C@H]([C@H](C)CCC(=O)NCCN(C)C)[C@@]12C", "note": "(stereo in doubt; 22) [listing 2 of 2 here]", "values": [{"measurement": "Activity", "setting": "Plasmodium berghei [8]", "value": "inactive"}]}, {"smiles": "CC(=O)O[C@H]1C[C@H]2[C@@H]([C@H](OC(C)=O)C[C@@H]3CC4(CC[C@@]32C)OOC2(CCC(C)CC2)OO4)[C@@H]2CC[C@H]([C@H](C)CCC(=O)NCCN(C)C)[C@@]12C", "note": "(stereo in doubt; 23) [listing 1 of 2 here]", "values": [{"measurement": "GI50", "setting": "MDA-MB-435", "value": 0.65, "unit": "µM"}, {"measurement": "TGI", "setting": "MDA-MB-435", "value": 1.34, "unit": "µM"}, {"measurement": "CC50", "setting": "MDA-MB-435", "value": 2.78, "unit": "µM"}, {"measurement": "IC50", "setting": "Plasmodium falciparum [1]", "value": 0.0435, "unit": "µM"}, {"measurement": "IC90", "setting": "Plasmodium falciparum [1]", "value": 0.094, "unit": "µM"}, {"measurement": "IC50", "setting": "Plasmodium falciparum [3]", "value": 0.0438, "unit": "µM"}, {"measurement": "IC90", "setting": "Plasmodium falciparum [3]", "value": 0.0712, "unit": "µM"}, {"measurement": "GI50", "setting": "ACHN", "value": 0.592, "unit": "µM"}, {"measurement": "LC50 (concentration killing 50% of cells)", "setting": "ACHN", "value": 2.64, "unit": "µM"}, {"measurement": "TGI", "setting": "ACHN", "value": 1.25, "unit": "µM"}, {"measurement": "GI50", "setting": "SN12C", "value": 0.606, "unit": "µM"}, {"measurement": "LC50 (concentration killing 50% of cells)", "setting": "SN12C", "value": 2.72, "unit": "µM"}, {"measurement": "TGI", "setting": "SN12C", "value": 1.28, "unit": "µM"}, {"measurement": "t1/2", "setting": "Liver microsomes", "value": 2, "unit": "h"}, {"measurement": "GI50", "setting": "CCRF-CEM", "value": 0.067, "unit": "µM"}, {"measurement": "TGI", "setting": "CCRF-CEM", "value": 0.151, "unit": "µM"}, {"measurement": "LC50 (concentration killing 50% of cells)", "setting": "CCRF-CEM; Homo sapiens, CCRF-CEM, 48 h", "value": 0.34, "unit": "µM"}, {"measurement": "GI50", "setting": "LOX IMVI", "value": 0.057, "unit": "µM"}, {"measurement": "LC50 (concentration killing 50% of cells)", "setting": "LOX IMVI; Homo sapiens, LOX IMVI, 48 h", "value": 0.295, "unit": "µM"}, {"measurement": "TGI", "setting": "LOX IMVI; Homo sapiens, LOX IMVI, 48 h", "value": 0.13, "unit": "µM"}, {"measurement": "IC50", "setting": "Plasmodium falciparum [5]", "value": 0.0392, "unit": "µM"}, {"measurement": "IC90", "setting": "Plasmodium falciparum [5]", "value": 0.102, "unit": "µM"}, {"measurement": "GI50", "setting": "NCI-H23", "value": 0.318, "unit": "µM"}, {"measurement": "LC50 (concentration killing 50% of cells)", "setting": "NCI-H23", "value": 3.11, "unit": "µM"}, {"measurement": "TGI", "setting": "NCI-H23", "value": 1.69, "unit": "µM"}, {"measurement": "t1/2", "setting": "[7]; microsomes", "value": "> 2", "unit": "h"}, {"measurement": "GI50", "setting": "NCI", "value": 0.057, "unit": "µM"}, {"measurement": "Survival", "setting": "Mus musculus [9]", "value": 11, "unit": "days"}, {"measurement": "Survival", "setting": "Mus musculus [10]", "value": 17, "unit": "days"}, {"measurement": "GI50", "setting": "HOP-92", "value": 0.07, "unit": "µM"}, {"measurement": "LC50 (concentration killing 50% of cells)", "setting": "HOP-92", "value": 2.86, "unit": "µM"}, {"measurement": "TGI", "setting": "HOP-92", "value": 0.695, "unit": "µM"}]}, {"smiles": "CC(=O)O[C@H]1C[C@H]2[C@@H]([C@H](OC(C)=O)C[C@@H]3CC4(CC[C@@]32C)OOC2(CCC(C)CC2)OO4)[C@@H]2CC[C@H]([C@H](C)CCC(=O)NCCN(C)C)[C@@]12C", "note": "(stereo in doubt; 23) [listing 2 of 2 here]", "values": [{"measurement": "Activity", "setting": "Plasmodium berghei [11]", "value": "inactive"}]}]}
